Experimental findings from patent publication US10420737B2, “Hepatotoxicity-free pharmaceutical composition containing acetaminophen drugs” (NATIONAL DEFENSE EDUCATION AND RESEARCH FOUNDATION, priority 2013, dated 2019) are described below.

Entries after “also recorded” stand apart in the source; their conditions may differ.

The test system of data set [1] is Male SD (Sprague-Dawley) rats. The data set can be described thus: APAP-induced hepatotoxicity in rats: plasma AST and ALT activity. It counts as in vivo, rat. As for the experimental part: After completion of the treatments, rats were sacrificed under ether anesthesia, and blood was collected from the tail artery of the rats and placed in a test tube containing EDTA. The plasma was centrifuged at 13,000 at 4° C. for 15 minutes and the isolated plasma was transferred to Eppendorf tubes in aliquots and stored at −80° C.
Liver damage is quantified by measuring plasma AST and ALT activity. AST and ALT are common indicators of hepatotoxicity and are measured by using the Synchron LXi 725 system (Beckman Instruments, U.S.).

Data set [2] has as its system Male SD (Sprague-Dawley) rats. The data set can be described thus: APAP-induced hepatotoxicity in rats: galactose single point (GSP) residual liver function test. The data set is classed as in vivo, rat. As to conditions: excipient 1.67 mg/kg + APAP 1000 mg/kg, single oral dose. Here is the method:
After the study was completed, all rats were subjected to GSP test. Rats were i.v. injected with 0.4 g/ml BW galactose solution 0.5 g/kg within 30 seconds and one blood sample was collected at 5, 10, 15, 30, 45 and 60 minutes post injection from the tail vein. Colorimetric galactose dehydrogenase is used to quantify the concentration of galactose and the test concentration ranges from 50 to 1,000 μg/ml. The within-day variation of each concentration is calculated using standard deviation and coefficient of variation (CV) and the maximum allowable coefficient of variation is 10% CV, whereas day-to-day variation is examined by comparing the slope and intercept of calibration curves. The GSP is the blood galactose concentration obtained 60 seconds after stopping the 30-second injection.

Data set [3] addresses Cytochrome P450 2E1 (CYP2E1) (Rattus norvegicus, UniProt P05182). Kind of data set: In-vitro screening of CYP2E1 inhibitors in rat liver microsomes (chlorzoxazone 6-hydroxylation). From the text:
(§1) This example is preparation of microsomes from rat and human liver for in vitro screening of CYP2E1 inhibitors. A total of 55 safe and edible excipients are included in the screening for cytochrome P450 2E1 (CYP2E1) inhibitors. […] After addition of the test sample, the amount of CYP2E1 metabolite standard 6-OH—CZX (6-Hydroxy-Chlorzoxazone) is used for calculation of the CYP 2E1 inhibition ratio of the test sample by using the amount of 6-OH—CZX of the control group as the baseline.
(§2) Transfer to and pre-incubate the reaction mixture in a water bath at 37° C. for 1 minute. […] Incubate the sample for 1 minute and add internal standard (5 ug/mL 4-hydroxy-tobutamide).

The target of data set [4] is Cytochrome P450 2E1 (CYP2E1) (Homo sapiens, UniProt P05181). The data set can be described thus: In-vitro screening of CYP2E1 inhibitors in human liver microsomes (chlorzoxazone 6-hydroxylation). As to conditions: human liver microsomes.
Chain of Cytochrome P450 2E1 (CYP2E1) (Homo sapiens, UniProt P05181) (P05181 whole entry): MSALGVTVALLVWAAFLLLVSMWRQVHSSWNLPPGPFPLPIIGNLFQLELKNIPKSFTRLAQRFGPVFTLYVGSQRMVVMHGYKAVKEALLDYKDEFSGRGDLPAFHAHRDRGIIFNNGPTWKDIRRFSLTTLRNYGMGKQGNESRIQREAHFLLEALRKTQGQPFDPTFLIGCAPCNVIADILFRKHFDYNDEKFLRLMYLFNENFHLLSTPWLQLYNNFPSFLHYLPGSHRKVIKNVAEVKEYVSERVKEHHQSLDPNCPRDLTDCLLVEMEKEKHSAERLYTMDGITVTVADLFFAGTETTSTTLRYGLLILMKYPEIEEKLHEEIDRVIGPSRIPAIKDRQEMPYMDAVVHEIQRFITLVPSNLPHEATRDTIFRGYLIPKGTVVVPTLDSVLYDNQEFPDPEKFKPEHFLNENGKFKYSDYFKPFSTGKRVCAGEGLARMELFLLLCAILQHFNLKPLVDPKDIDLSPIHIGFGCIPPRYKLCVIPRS
Excerpt: as §1, §2

In data set [5] the test system is Male SD (Sprague-Dawley) rats. Kind of data set: APAP-induced hepatotoxicity in rats: histological liver tissue sections (Total HAI-score). As to conditions: single oral dose.
Setting [6] is: excipient 1.67 mg/kg + APAP 1000 mg/kg, single oral dose.
Setting [7] is: rat liver microsomes, test concentration 16.5 μM.
[8] abbreviates: rat liver microsomes, test concentration 33 μM.
Setting [9] is: rat liver microsomes, test concentration 66 μM.
Setting [10] is: rat, microsomes, 30 min, 16.5 μM, pH 7.4.
The mark [11] stands for this setting: rat, microsomes, 30 min, 33 μM, pH 7.4.
The mark [12] stands for this setting: rat, microsomes, 30 min, 66 μM, pH 7.4.

Chain of Cytochrome P450 2E1 (CYP2E1) (Rattus norvegicus, UniProt P05182) (P05182 whole entry): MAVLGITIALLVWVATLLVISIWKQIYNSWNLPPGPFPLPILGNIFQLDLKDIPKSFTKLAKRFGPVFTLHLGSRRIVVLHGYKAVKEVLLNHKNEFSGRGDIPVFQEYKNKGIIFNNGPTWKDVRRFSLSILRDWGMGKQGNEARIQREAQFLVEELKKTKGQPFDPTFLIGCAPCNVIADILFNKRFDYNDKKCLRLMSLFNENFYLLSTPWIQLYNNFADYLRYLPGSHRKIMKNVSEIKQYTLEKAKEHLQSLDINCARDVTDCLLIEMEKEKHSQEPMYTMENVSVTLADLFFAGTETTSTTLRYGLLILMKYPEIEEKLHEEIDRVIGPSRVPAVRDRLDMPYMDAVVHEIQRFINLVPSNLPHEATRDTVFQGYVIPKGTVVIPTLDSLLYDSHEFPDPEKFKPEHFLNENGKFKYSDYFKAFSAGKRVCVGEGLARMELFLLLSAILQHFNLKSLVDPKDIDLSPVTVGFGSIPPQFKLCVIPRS

As for `CC1CCC(C(C)C)C(O)C1` (stereo not drawn) [Menthol], the “improvement of APAP liver damage (AST, ALT, GSP and Total HAI-score, in words)” value in data set [1] (combined with APAP 1000 mg/kg, versus APAP hepatotoxicity group) is listed as “significant decrease”. Moreover, the ALT in data set [1] (setting [6]) was 109 ± 23 IU/L. The AST in data set [1] (setting [6]) stood at 187 ± 21 IU/L. For the same molecule, the GSP in data set [2] was 289 ± 20 mg/L. For the same molecule, the “CYP 2E1 inhibition ratio” value in data set [3] (setting [7]) is on record as 7.2 ± 2.9%; in data set [3] (setting [8]), 15.3 ± 7.9%; in data set [3] (setting [9]), 36.4 ± 0.3%; in data set [4] (test concentration 16.5 μM), 10.5 ± 0.4%; in data set [4] (test concentration 33 μM) it was 20.8 ± 2.1%; in data set [4] (test concentration 66 μM) it was 30.8 ± 0.3%. Also, in data set [5] (excipient 1.67 mg/kg + APAP 1000 mg/kg), the “Total HAI-score” value was 11 ± 1.2. For the same molecule, in data set [5] (liver protection groups + APAP 1000 mg/kg, H&E stain 200×, FIG. 2), the “liver tissue sections, hepatocyte morphology (in words)” value is “more intact around the central vein and have a apparent nucleus with less vacuolization; also recorded: hepatocytes are relatively intact with visible nucleus and less vacuolization”.
`COC(=O)c1ccc(O)cc1` [Methylparaben]: the “CYP 2E1 inhibition ratio” value is 4.6 ± 3.2% in data set [3] (setting [10]), −14.6 ± 4.1% in data set [3] (setting [11]) and −21.5 ± 2.0% in data set [3] (setting [12]).
The matching figures for `CCCOC(=O)c1ccc(O)cc1` [Propylparaben]: −4.1 ± 1.2%, −17.2 ± 2.4% and −27.3 ± 3.7%.
On to `O=C1NS(=O)(=O)c2ccccc21` [Saccharin], for which the “CYP 2E1 inhibition ratio” value in data set [3] (setting [7]) is reported as 35.3 ± 2.0%; in data set [3] (setting [8]) it was 59.6 ± 3.3%; in data set [3] (setting [9]), 67.4 ± 3.9%; in data set [4] (test concentration 16.5 μM), 29.4 ± 2.7%; in data set [4] (test concentration 33 μM) it was 51.2 ± 0.9%; in data set [4] (test concentration 66 μM), 78.5 ± 2.1%.
In the case of `O=C([O-])c1ccccc1.[Na+]` [Sodium benzoate], the “CYP 2E1 inhibition ratio” value in data set [3] (setting [7]) was 7.1 ± 2.0%; in data set [3] (setting [8]), 7.8 ± 4.1%; in data set [3] (setting [9]), 15.8 ± 0.9%.
Turning to `CCCCCCCCCCCCOS(=O)(=O)[O-].[Na+]` [Sodium lauryl sulfate], the “CYP 2E1 inhibition ratio” value in data set [3] (setting [7]) stood at 4.6 ± 1.1%; in data set [3] (setting [8]), 6.4 ± 0.9%; in data set [3] (setting [9]), 4.8 ± 1.2%.
Turning to `C/C=C/C=C/C(=O)O` [Sorbic acid], the “CYP 2E1 inhibition ratio” value amounted to 12.1 ± 5.7% in data set [3] (setting [7]); 13.2 ± 4.4% in data set [3] (setting [8]); 19.0 ± 5.6% in data set [3] (setting [9]); 8.4 ± 1.6% in data set [4] (test concentration 16.5 μM); 10.9 ± 2.7% in data set [4] (test concentration 33 μM); 14.8 ± 0.1% in data set [4] (test concentration 66 μM).
With `OC[C@@H](O)[C@@H](O)[C@H](O)[C@@H](O)CO` [Sorbitol], the “CYP 2E1 inhibition ratio” value in data set [3] (rat, microsomes, 30 min, 0.024 %, pH 7.4) was found to be 6.4 ± 0.5%; in data set [3] (rat, microsomes, 30 min, 0.084 % (w/v), pH 7.4), 5.6 ± 0.5%; in data set [3] (rat, microsomes, 30 min, 0.167 % (w/v), pH 7.4), 16.1 ± 0.7%.
Turning to Magnesium stearate, the “CYP 2E1 inhibition ratio” value came out at 2.0 ± 1.0% in data set [3] (setting [7]), 3.0 ± 0.7% in data set [3] (setting [8]) and 5.0 ± 1.6% in data set [3] (setting [9]).
